# Where two headings read alike, the source gives them in different places.
# Tested on: patients with IPSS Low to Intermediate-1 Risk Myelodysplastic Syndrome
# Conditions: for patients achieving significant RBC transfusion reduction: no prior DMTI, five of 11 patients
# Procedure: Eighty-seven patients were randomized and treated at 23 investigational sites. After initial dose ranging in 14 patients, two dose levels were selected for further study. Subsequently, 37 patients were treated at 3 grams daily for two weeks followed by a one week rest period, and 36 patients were treated at 2 grams daily for three weeks followed by a one week rest period. The data on these 73 patients was pooled for this preliminary analysis.
smiles,measurement,setting,value
"CCOC(=O)[C@@H](N)CCC(=O)N[C@@H](CSCc1ccccc1)C(=O)N[C@@H](C(=O)OCC)c1ccccc1 [Telintra, ethyl (2S)-2-amino-5-[[(2R)-3-benzylsulfanyl-1-[[(1R)-2-ethoxy-2-oxo-1-phenylethyl]amino]-1-oxopropan-2-yl]amino]-5-oxopentanoate]","increase in response rate, lenalidomide pre-treated vs not pre-treated patients",46% vs 22% response rate,over 100%
same,cytogenetic complete responses,all study patients,three cytogenetic complete responses
same,HI-E Response Rate (95% Confidence Interval),"efficacy evaluable patients with prior Revlimid (lenalidomide) treatment: Yes, N=13, listed as ezatiostat hydrochloride",about 46%
same,complete cytogenetic response in del 5q minus patients,"four patients enrolled with del 5q minus, one responder had failed prior Revlimid",two had a complete cytogenetic response
same,change in odds for a HI-E response with prior DMTI treatment,"logistic regression analysis, p=0.023",five-fold decrease
same,patients achieving significant RBC transfusion reduction,no prior Revlimid,45%
same,duration of complete remission following discontinuation of therapy,one patient (Quddus et al.),more than 12 months
same,patients achieving significant RBC transfusion reduction,prior Revlimid,45%
